This is an account of results in patent EP1005460B1, “PROSTAGLANDIN ENDOPEROXIDE H SYNTHASE BIOSYNTHESIS INHIBITORS” (ABBOTT LABORATORIES, priority 1997, dated 1999).

Each structure is given as a SMILES string. Read-outs that look alike come from different tables or passages of the source.

Assay [1] deals with prostaglandin biosynthesis. The experiment in a line: Rat carrageenan pleural inflammation model (CIP). The format is in vivo, Sprague-Dawley rats. Conditions: 10 milligrams per kilogram body weight, oral, 30 minutes before intrapleural carrageenan; lavage after four hours. How it is done:
(§1) To compare the mean responses of the treatment groups, analysis of variance was applied. Percent inhibition values were determined by comparing the individual treatment mean values to the mean of the control group. Linear regression was used to estimate IC50's/ED50's in appropriate assays.
(§2) EIA reagents for prostaglandin determination were purchased from Perseptive Diagnostics, (Cambridge, MA). PGE2 levels in lavage fluids were determined after the samples were dried under nitrogen and reconstituted with assay buffer. PGE2 levels in enzyme assays or cell culture media were measured against standards prepared in the same milieu. The immunoassays were conducted as recommended by the manufacturer. The EIA was conducted in 96 well microtiter plates (Nunc Roskilde, Denmark) and optical density was measured using a microplate reader (Vmax, Molecular Devices Corp., Menlo Park, CA).
Pleural inflammation was induced in male adrenalectomized Sprague-Dawley rats following the method of Vinegar et al., Fed. Proc. 1976, 35, 2447-2456. Animals were orally dosed with experimental compounds, in 0.2% HPMC, 30 minutes prior to the intrapleural injection of 2% lambda carrageenan (Sigma Chemical Co., St. Louis MO). Four hours later the animals were euthanized and the pleural cavities lavaged with ice cold saline. […] Eicosanoids were determined by EIA as described above. […]

Assay [2] addresses T1, Cox-2 (Homo sapiens, UniProt P35354).
T1 sequence (P35354 18-604): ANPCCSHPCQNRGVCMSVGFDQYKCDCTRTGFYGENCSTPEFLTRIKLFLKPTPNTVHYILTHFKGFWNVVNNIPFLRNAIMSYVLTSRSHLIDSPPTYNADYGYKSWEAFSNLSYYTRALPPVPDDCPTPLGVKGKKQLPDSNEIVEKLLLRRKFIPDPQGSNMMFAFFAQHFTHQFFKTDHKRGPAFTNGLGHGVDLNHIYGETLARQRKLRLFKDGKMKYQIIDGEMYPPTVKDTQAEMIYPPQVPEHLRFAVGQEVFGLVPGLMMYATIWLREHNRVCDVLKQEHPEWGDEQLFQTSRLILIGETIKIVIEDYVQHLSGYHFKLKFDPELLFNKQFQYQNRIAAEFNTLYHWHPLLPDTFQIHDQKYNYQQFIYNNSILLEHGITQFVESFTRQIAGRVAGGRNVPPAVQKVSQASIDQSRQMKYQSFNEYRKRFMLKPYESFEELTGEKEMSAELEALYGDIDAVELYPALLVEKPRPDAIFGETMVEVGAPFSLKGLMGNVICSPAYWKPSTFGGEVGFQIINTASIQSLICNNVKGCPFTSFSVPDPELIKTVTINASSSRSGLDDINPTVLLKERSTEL
As to the kind of experiment: Recombinant human PGHS-2 (Cox-2) enzyme assay, PGE2 by EIA. The format is biochemical. Also noted: made in house; host or cells: baculovirus/Sf9 insect cells (microsomes). Conditions: microsomes, 60 min preincubation, 10 µM arachidonic acid; for IC50: read-out: RHUCX2 Cox-2 IC50 (parenthetical values); for inhibition at 0.1 µM: at 100 nM; for inhibition at 0.1 µM / inhibition at 1 µM: read-out: RHUCX2 Cox-2 percent inhibition; for inhibition at 1 µM: at 1000 nM. How it is done:
as §1, §2
(§3) Inhibition of prostaglandin biosynthesis in vitro was evaluated using recombinant human Cox-1 (r-hu Cox1) and Cox-2 (r-hu Cox2) enzyme assays. […] The reaction was allowed to run for 2.5 minutes at room temperature prior to quenching with HCl and neutralization with NaOH. PGE2 production in the presence and absence of the drug was determined by EIA analysis. The EIA was conducted in 96 well microtiter plates (Nunc Roskilde, Denmark) and optical density was measured using a microplate reader (Vmax, Molecular Devices Corp., Menlo Park, CA). EIA reagents for prostaglandin determination were purchased from Perseptive Diagnostics (Cambridge, MA). PGE2 levels were measured against standards prepared in the same milieu. The immunoassays were conducted as recommended by the manufacturer. The compounds are designated by the Example Number. […] Values for Cox-2 inhibition that are parenthetical indicate IC50 values.

In assay [3] the target is T2, Cox-1 (Homo sapiens, UniProt P23219). The experiment in a line: U937 cell assay, Cox-1 activity by EIA. The format is cell-based. Also on record: host or cells: U937 cells. The conditions noted are these: U937 cells. The method, then:
as §1, §2
(§4) Human amnionic WISH cells were grown to 80% confluence in 48 well plates. Following removal of the growth medium and two washings with Gey's Balanced Salt Solution, 5 ng IL-1 β/ml (UBI, Lake Placid, NY) was added to the cells with or without test compound in DMSO (0.01% v/v) in Neuman-Tytell Serumless Medium (GIBCO, Grand Island, NY). Following an 18 hour incubation to allow for the maximal induction of PGHS-2, the conditioned medium was removed and assayed for PGE2 activity by EIA analysis as described above.
U937 (ATCC, Rockville, MD) cells were grown in a similar fashion to the WISH cells. After incubation, the conditioned medium was removed and assayed for Cox-1 activity by EIA analysis as described above. U937 values indicate percent inhibition at the particular micromolar dose level while parenthetical values indicate IC50 values. Wish cell values indicate Cox-2 pecent inhibition at the particular micromolar dose level.

For assay [4], the target named is T2, Cox-1. As to the kind of experiment: Recombinant human PGHS-1 (Cox-1) enzyme assay, PGE2 by EIA. Also on record: made in house; host or cells: baculovirus/Sf9 insect cells (microsomes). The format is biochemical. The conditions noted are these: microsomes, 60 min preincubation, 10 µM arachidonic acid, read-out: RHUCX1 Cox-1 percent inhibition. The method, then: as §1, §2, §3

Assay [5] addresses T1, Cox-2. As to the kind of experiment: IL-1β induced PGE2 production in WISH cells. The format is cell-based. Also on record: endogenous in cells; host or cells: human amnionic WISH cells induced with IL-1β. The method, then: as §1, §2, §4
U937 (ATCC, Rockville, MD) cells were grown in a similar fashion to the WISH cells. After incubation, the conditioned medium was removed and assayed for Cox-1 activity by EIA analysis as described above. U937 values indicate percent inhibition at the particular micromolar dose level while parenthetical values indicate IC50 values. […]

Where [6] appears, read: U-937, read-out: U937 percent inhibition.

T2 sequence (P23219 24-599): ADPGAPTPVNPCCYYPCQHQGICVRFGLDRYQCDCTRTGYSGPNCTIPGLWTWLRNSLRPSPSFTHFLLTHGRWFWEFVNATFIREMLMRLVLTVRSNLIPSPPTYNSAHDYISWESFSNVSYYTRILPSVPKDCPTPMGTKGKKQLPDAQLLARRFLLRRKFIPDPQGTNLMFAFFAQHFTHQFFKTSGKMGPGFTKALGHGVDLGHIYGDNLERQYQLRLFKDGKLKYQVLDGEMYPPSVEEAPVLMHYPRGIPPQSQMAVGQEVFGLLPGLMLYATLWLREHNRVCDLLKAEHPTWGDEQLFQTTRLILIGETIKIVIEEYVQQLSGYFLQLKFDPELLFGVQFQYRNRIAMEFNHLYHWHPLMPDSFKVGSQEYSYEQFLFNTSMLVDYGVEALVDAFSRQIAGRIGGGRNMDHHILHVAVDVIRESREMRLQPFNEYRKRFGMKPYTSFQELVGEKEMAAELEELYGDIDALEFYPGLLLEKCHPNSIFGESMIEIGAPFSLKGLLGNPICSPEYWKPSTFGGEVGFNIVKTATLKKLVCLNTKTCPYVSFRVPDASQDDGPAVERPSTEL

Turning to `CS(=O)(=O)c1ccc(-c2cc(=O)n(Cc3ccccc3)nc2-c2ccc(F)cc2)cc1` [Example 7, 2-Benzyl-5-(4-methylsulfonylphenyl)-6-(4-fluorophenyl)-3(2H)-pyridazinone], the “CIP Inh @10mpk” value in assay [1] turned out to be 22%. In addition, the results for the IC50 at Cox-2 [2] and on Cox-1 [3] (read-out: U937 IC50 (parenthetical values)) were 20 nM and 870 nM, respectively. In addition, the inhibition (commonly the relative decrease from the control value, in per cent) at 100 µM on Cox-1 [4] is 4%.
As for `CS(=O)(=O)c1ccc(-c2cc(=O)n(Cc3ccc(F)cc3)nc2-c2ccc(F)cc2)cc1` [Example 10, 2-(4-Fluorobenzyl)-5-(4-methylsulfonylphenyl)-6-(4-fluorophenyl)-3(2H)-pyridazinone], at Cox-2 [2], the inhibition at 0.1 µM was found to be 65%. In addition, on Cox-1 [3] (setting [6]), the inhibition at 10 µM amounted to 62%. The inhibition at 100 µM on Cox-1 [4] amounted to 2%.
For `CCCCn1nc(-c2ccc(F)cc2)c(-c2ccc(S(C)(=O)=O)cc2)cc1=O` [Example 11, 2-(n-Butyl)-5-(4-methylsulfonylphenyl)-6-(4-fluorophenyl)-3(2H)-pyridazinone], the inhibition at 0.1 µM on Cox-2 [2] was found to be 51%. The inhibition at 100 µM at Cox-1 [4] was 19%.
For `CC(c1ccc(F)cc1)n1nc(-c2ccc(F)cc2)c(-c2ccc(S(C)(=O)=O)cc2)cc1=O` (stereo not drawn) [Example 12, 2-(4-Fluoro-α-methylbenzyl)-5-(4-methylsulfonylphenyl)-6-(4-fluorophenyl)-3(2H)-pyridazinone], the IC50 – broadly, the concentration at which inhibition is half-maximal – at Cox-2 [2] came out at 740 nM. Moreover, the inhibition at 100 µM at Cox-1 [4] came to 8%.
On to `CCCCCn1nc(-c2ccc(F)cc2)c(-c2ccc(S(C)(=O)=O)cc2)cc1=O` [Example 14, 2-(n-Pentyl)-5-(4-methylsulfonylphenyl)-6-(4-fluorophenyl)-3(2H)-pyridazinone], for which the inhibition at 0.1 µM on Cox-2 [2] worked out at 66%. In addition, the inhibition at 1 µM at Cox-1 [3] (U-937, at 1 µM, read-out: U937 percent inhibition) was found to be 42%. Moreover, the “Wish Cox-2 percent inhibition” value on Cox-2 [5] (at 0.00001 (head:)) was 34 @ 0.00001%. The inhibition at 100 µM on Cox-1 [4] is 23%.
As for `CS(=O)(=O)c1ccc(-c2cc(=O)n(CC3CCCCC3)nc2-c2ccc(F)cc2)cc1` [Example 15, 2-Cyclohexylmethyl-5-(4-methylsulfonylphenyl)-6-(4-fluorophenyl)-3(2H)-pyridazinone], the IC50 on Cox-2 [2] stood at 5 nM. At Cox-1 [3] (U-937, at 0.01 µM, read-out: U937 percent inhibition), the inhibition at 0.01 µM came out at 33%. Further, at Cox-2 [5] (at 0.001 (head:)), the “Wish Cox-2 percent inhibition” value is 43 @ 0.001%. Moreover, the inhibition at 100 µM at Cox-1 [4] is 52%.
As to `C#CCn1nc(-c2ccc(F)cc2)c(-c2ccc(S(C)(=O)=O)cc2)cc1=O` [Example 17, 2-Propargyl-5-(4-methylsulfonylphenyl)-6-(4-fluorophenyl)-3(2H)-pyridazinone], the IC50 at Cox-2 [2] was 850 nM. In addition, the inhibition at 10 µM at Cox-1 [3] (setting [6]) came to 41%. For the same compound, the “Wish Cox-2 percent inhibition” value at Cox-2 [5] was 54 @ 1%. Also, at Cox-1 [4], the inhibition at 100 µM is 0%.
On to `CS(=O)(=O)c1ccc(-c2cc(=O)n(C3CCCCC3)nc2-c2ccc(F)cc2)cc1` [Example 18, 2-Cyclohexyl-5-(4-methylsulfonylphenyl)-6-(4-fluorophenyl)-3(2H)-pyridazinone], for which, on Cox-2 [2], the inhibition at 0.1 µM was 49%. For the same compound, the inhibition at 100 µM on Cox-1 [4] was 16%.
In the case of `CC#CCn1nc(-c2ccc(F)cc2)c(-c2ccc(S(C)(=O)=O)cc2)cc1=O` [Example 19, 2-(2-Butyn-1-yl)-5-(4-methylsulfonylphenyl)-6-(4-fluorophenyl)-3(2H)-pyridazinone], the inhibition at 1 µM at Cox-2 [2] was found to be 66%. Besides, the inhibition at 100 µM on Cox-1 [4] is 3%.
In the case of `CS(=O)(=O)c1ccc(-c2cc(=O)n(CC3CCC3)nc2-c2ccc(F)cc2)cc1` [Example 20, 2-(Cyclobutylmethyl)-5-(4-methylsulfonylphenyl)-6-(4-fluorophenyl)-3(2H)-pyridazinone], on Cox-1 [3] (setting [6]), the inhibition at 10 µM amounted to 60%.
Turning to `CC(C)=CCn1nc(-c2ccc(F)cc2)c(-c2ccc(S(C)(=O)=O)cc2)cc1=O` [Example 21, 2-(3-Methylbuten-2-yl)-5-(4-methylsulfonylphenyl)-6-(4-fluorophenyl)-3(2H)-pyridazinone], the inhibition at 0.1 µM at Cox-2 [2] is 92%. Besides, on Cox-1 [3] (setting [6]), the inhibition at 10 µM amounted to 80%. Further, the inhibition at 100 µM on Cox-1 [4] is 62%.
Regarding `CS(=O)(=O)c1ccc(-c2cc(=O)n(CC(F)(F)F)nc2-c2ccc(F)cc2)cc1` [Example 22, 2-(2,2,2-Trifluoroethyl)-5-(4-methylsulfonylphenyl)-6-(4-fluorophenyl)-3(2H)-pyridazinone], the inhibition at 1 µM on Cox-2 [2] stood at 46%. The inhibition at 100 µM on Cox-1 [4] was 0%.
Consider `CS(=O)(=O)c1ccc(-c2cc(=O)n(CC3CC3)nc2-c2ccc(F)cc2)cc1` [Example 23, 2-(Cyclopropylmethyl)-5-(4-methylsulfonylphenyl)-6-(4-fluorophenyl)-3(2H)-pyridazinone], for which the “CIP Inh @10mpk” value in assay [1] is reported as 41%. Besides, on Cox-2 [2], the IC50 was 250 nM. Further, the inhibition at 10 µM at Cox-1 [3] (setting [6]) is 30%. Besides, the “Wish Cox-2 percent inhibition” value at Cox-2 [5] is 62 @ 1%. Also, the inhibition at 100 µM at Cox-1 [4] was determined as 24%.
With `CS(=O)(=O)c1ccc(-c2cc(=O)n(CC3CCCC3)nc2-c2ccc(F)cc2)cc1` [Example 24, 2-Cyclopentylmethyl-5-(4-methylsulfonylphenyl)-6-(4-fluorophenyl)-3(2H)-pyridazinone], the inhibition at 0.1 µM at Cox-2 [2] was found to be 87%. Further, the inhibition at 100 µM on Cox-1 [4] was determined as 23%.
Regarding `CS(=O)(=O)c1ccc(-c2cc(=O)n(C3CCCC3)nc2-c2ccc(F)cc2)cc1` [Example 25, 2-Cyclopentyl-5-(4-methylsulfonylphenyl)-6-(4-fluorophenyl)-3(2H)-pyridazinone], the inhibition at 0.1 µM at Cox-2 [2] was found to be 42%. Besides, at Cox-1 [4], the inhibition at 100 µM is 7%.
